In US20230373974A1, “MODULATORS OF CYSTIC FIBROSIS TRANSMEMBRANE CONDUCTANCE REGULATOR” (VERTEX PHARMACEUTICALS INCORPORATED, priority 2020, published 2023):

How the values were obtained:
[1] = biological target: CFTR-mediated chloride transport in human intestinal epithelial enteroid cells (Homo sapiens, UniProt P13569); experiment: Enteroid assay: membrane potential dye assay (Enteroid Assay A or B); format: cell-based; settings: for Ent. Max Activity (%): chloride transport as percentage of triple combination control (% Activity)
Chain of CFTR-mediated chloride transport in human intestinal epithelial enteroid cells (P13569 whole entry): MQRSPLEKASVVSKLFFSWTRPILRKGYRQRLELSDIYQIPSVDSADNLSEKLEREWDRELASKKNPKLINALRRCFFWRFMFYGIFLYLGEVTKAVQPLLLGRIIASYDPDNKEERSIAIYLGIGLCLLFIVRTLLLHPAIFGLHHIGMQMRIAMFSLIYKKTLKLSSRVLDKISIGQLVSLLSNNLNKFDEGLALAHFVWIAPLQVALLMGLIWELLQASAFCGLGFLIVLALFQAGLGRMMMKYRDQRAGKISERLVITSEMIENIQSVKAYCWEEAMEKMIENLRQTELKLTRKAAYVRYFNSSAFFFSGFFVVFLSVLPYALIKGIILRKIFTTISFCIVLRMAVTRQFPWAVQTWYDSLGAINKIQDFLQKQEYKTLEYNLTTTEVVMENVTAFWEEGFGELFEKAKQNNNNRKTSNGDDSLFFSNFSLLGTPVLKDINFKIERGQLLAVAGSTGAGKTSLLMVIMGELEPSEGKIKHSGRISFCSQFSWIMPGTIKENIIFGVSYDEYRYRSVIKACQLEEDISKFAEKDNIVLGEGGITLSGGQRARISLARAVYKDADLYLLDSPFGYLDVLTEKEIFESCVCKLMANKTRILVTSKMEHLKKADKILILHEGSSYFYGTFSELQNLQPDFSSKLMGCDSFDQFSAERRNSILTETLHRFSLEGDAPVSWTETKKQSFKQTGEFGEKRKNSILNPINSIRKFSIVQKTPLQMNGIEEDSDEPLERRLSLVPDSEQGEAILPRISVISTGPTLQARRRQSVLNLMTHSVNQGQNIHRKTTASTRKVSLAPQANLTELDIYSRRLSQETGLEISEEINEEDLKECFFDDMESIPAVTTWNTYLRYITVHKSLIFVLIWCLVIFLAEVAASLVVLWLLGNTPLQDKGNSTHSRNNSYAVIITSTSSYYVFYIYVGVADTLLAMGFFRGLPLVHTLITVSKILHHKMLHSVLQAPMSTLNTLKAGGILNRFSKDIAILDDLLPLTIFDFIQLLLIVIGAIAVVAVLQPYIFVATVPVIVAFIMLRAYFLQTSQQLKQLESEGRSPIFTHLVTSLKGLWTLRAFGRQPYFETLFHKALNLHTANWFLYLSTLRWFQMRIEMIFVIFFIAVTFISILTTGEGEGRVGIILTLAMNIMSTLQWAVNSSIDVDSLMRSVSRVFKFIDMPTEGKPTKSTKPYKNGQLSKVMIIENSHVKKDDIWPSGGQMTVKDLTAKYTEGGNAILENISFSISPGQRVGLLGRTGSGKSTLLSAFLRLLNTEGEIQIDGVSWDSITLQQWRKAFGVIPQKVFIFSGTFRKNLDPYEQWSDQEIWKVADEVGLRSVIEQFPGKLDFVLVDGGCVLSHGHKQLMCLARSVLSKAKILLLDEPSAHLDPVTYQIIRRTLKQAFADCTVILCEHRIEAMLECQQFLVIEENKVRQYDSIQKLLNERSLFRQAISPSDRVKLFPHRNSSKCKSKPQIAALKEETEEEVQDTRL
Procedure: Base medium (ADF+++) consisted of Advanced DMEM/Ham's F12, 2 mM Glutamax, 10 mM HEPES, […] penicillin/streptomycin.
Intestinal enteroid maintenance medium (IEMM) consisted of ADF+++, 1×B27 supplement, 1×N2 supplement, 1.25 mM N-acetyl cysteine, 10 mM Nicotinamide, 50 ng/mL hEGF, 10 nM Gastrin, 1 μg/mL hR-spondin-1, 100 ng/mL hNoggin, TGF-b type 1 inhibitor A-83-01, 100 μg/mL Primocin, 10 μM P38 MAPK inhibitor SB202190.
Bath 1 Buffer consisted of 1 mM MgCl2, 160 mM NaCl, 4.5 mM KCl, 10 mM HEPES, 10 mM Glucose, 2 mM CaCl2).
Chloride Free Buffer consisted of 1 mM Magnesium Gluconate, 2 mM Calcium Gluconate, 4.5 mM Potassium Gluconate, 160 mM Sodium Gluconate, 10 mM HEPES, 10 mM Glucose.
Bath1 Dye Solution consisted of Bath 1 Buffer, 0.04% Pluronic F127, 20 μM Methyl Oxonol, 30 μM CaCCinh-A01, 30 μM Chicago Sky Blue.
Chloride Free Dye Solution consisted of Chloride Free Buffer, 0.04% Pluronic F127, 20 μM Methyl Oxonol, 30 μM CaCCinh-A01, 30 μM Chicago Sky Blue.
Chloride Free Dye Stimulation Solution consisted of Chloride Free Dye Solution, 10 μM forskolin, 100 μM IBMX, and 300 nM Compound III.
Human intestinal epithelial enteroid cells were obtained from the Hubrecht Institute for Developmental Biology and Stem Cell Research, Utrecht, The Netherlands and expanded in T-Flasks as previously described (Dekkers J F, Wiegerinck C L, de Jonge H R, Bronsveld I, Janssens H M, de Winter-de Groot K M, Brandsma A M, de Jong N W M, Bijvelds M J C, Scholte B J, Nieuwenhuis E E S, van den Brink S, Clevers H, van der Ent C K, Middendorp S and M Beekman J M. A functional CFTR assay using primary cystic fibrosis intestinal organoids. Nat Med. 2013 July; 19(7):939-45).
3. Enteroid Cell Harvesting and Seeding […]
Enteroid cells were incubated with test compound in IEMM for 18-24 hours at 37° C., 95% humidity and 5% CO2. […] Chloride transport was initiated by addition of Chloride Free Dye Stimulation Solution and the fluorescence signal was read for 15 min. […] Chloride transport was then expressed as a percentage of the chloride transport following treatment with 3 μM (S)—N-((6-aminopyridin-2-yl)sulfonyl)-6-(3-fluoro-5-isobutoxyphenyl)-2-(2,2,4-trimethylpyrrolidin-1-yl)nicotinamide, 3 μM (R)-1-(2,2-difluorobenzo[d][1,3]dioxol-5-yl)-N-(1-(2,3-dihydroxypropyl)-6-fluoro-2-(1-hydroxy-2-methylpropan-2-yl)-1H-indol-5-yl)cyclopropanecarboxamide and 300 nM acute N-[2,4-bis(1,1-dimethylethyl)-5-hydroxyphenyl]-1,4-dihydro-4-oxoquinoline-3-carboxamide triple combination control (% Activity). […]
Enteroid cells were incubated with test compound in IEMM for 18-24 hours at 37° C., 95% humidity and 5% CO2. […] Chloride transport was initiated by addition of Chloride Free Dye Stimulation Solution and the fluorescence signal was read for 15 min. […]

[2] = biological target: T1, F508del in NIH 3T3 cells (Homo sapiens, UniProt P13569, DEL508-508); experiment: 3T3 assay: membrane potential optical assay for F508del correction; format: cell-based, mouse; settings: F508del NIH 3T3 cells, incubated with compound 18-24 hours at 37° C., forskolin activation
T1 construct: expressed in transfected cells
T1 sequence (P13569 with tags, fused parts or gaps DEL508-508): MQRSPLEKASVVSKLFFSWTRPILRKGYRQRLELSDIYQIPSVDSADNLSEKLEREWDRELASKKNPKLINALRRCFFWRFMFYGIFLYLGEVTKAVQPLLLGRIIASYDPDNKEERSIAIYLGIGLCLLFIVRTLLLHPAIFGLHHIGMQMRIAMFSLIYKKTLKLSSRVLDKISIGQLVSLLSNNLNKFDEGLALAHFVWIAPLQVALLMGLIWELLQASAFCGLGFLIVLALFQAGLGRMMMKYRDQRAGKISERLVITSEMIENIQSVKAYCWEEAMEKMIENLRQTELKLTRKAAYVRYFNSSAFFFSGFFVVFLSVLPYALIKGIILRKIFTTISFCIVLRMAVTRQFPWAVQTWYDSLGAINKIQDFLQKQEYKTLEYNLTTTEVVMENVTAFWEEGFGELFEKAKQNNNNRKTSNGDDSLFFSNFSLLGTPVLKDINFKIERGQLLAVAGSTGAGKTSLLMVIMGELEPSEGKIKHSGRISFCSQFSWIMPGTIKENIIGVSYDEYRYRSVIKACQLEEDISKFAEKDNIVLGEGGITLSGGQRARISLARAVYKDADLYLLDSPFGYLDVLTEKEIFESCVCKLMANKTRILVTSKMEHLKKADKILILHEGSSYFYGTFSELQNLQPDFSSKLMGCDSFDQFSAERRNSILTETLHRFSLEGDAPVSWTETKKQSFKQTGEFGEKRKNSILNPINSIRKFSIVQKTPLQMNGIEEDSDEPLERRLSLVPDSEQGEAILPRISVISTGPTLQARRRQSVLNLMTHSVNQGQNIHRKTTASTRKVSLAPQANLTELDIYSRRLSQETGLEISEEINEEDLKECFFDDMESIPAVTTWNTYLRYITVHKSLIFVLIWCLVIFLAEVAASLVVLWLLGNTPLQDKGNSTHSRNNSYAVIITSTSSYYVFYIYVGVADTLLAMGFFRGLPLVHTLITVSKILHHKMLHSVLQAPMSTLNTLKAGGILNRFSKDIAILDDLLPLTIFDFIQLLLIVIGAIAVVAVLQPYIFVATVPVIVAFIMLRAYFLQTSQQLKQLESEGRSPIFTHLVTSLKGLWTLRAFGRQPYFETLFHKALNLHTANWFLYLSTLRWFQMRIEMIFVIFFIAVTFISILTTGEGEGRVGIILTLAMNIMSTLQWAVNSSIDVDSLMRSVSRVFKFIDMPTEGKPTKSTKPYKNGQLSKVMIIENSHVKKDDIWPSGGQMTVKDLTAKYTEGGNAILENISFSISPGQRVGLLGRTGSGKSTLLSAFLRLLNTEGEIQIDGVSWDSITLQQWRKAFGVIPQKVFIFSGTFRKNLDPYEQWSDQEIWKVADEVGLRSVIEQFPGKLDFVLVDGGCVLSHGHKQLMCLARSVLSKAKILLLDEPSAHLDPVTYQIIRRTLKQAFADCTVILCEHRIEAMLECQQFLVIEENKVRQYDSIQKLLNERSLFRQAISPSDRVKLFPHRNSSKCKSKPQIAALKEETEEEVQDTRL
Description: Membrane Potential Optical Methods for Assaying F508del Modulation Properties of Compounds The assay utilizes fluorescent voltage sensing dyes to measure changes in membrane potential using a fluorescent plate reader (e.g., FLIPR III, Molecular Devices, Inc.) as a readout for increase in functional F508del in NIH 3T3 cells. The driving force for the response is the creation of a chloride ion gradient in conjunction with channel activation by a single liquid addition step after the cells have previously been treated with compounds and subsequently loaded with a voltage sensing dye. 2. Identification of Corrector Compounds To identify correctors of F508del, a single-addition HTS assay format was developed. This HTS assay utilizes fluorescent voltage sensing dyes to measure changes in membrane potential on the FLIPR III as a measurement for increase in gating (conductance) of F508del in F508del NIH 3T3 cells. The F508del NIH 3T3 cell cultures were incubated with the corrector compounds at a range of concentrations for 18-24 hours at 37° C., and subsequently loaded with a redistribution dye. The driving force for the response is a Cl^− ion gradient in conjunction with channel activation with forskolin in a single liquid addition step using a fluorescent plate reader such as FLIPR III. […] Solutions […] Chloride-free bath solution: Chloride salts in Bath Solution #1 (above) are substituted with gluconate salts. 4. Cell Culture NIH3T3 mouse fibroblasts stably expressing F508del are used for optical measurements of membrane potential. The cells are maintained at 37° C. in 5% CO2 and 90% humidity in Dulbecco's modified Eagle's medium supplemented with 2 mM glutamine, 10% fetal bovine serum, 1×NEAA, b-ME, 1×pen/strep, and 25 mM HEPES in 175 cm^2 culture flasks. For all optical assays, the cells were seeded at ˜20,000/well in 384-well Matrigel-coated plates. For the correction assays, the cells are cultured at 37° C. with and without compounds for 16-24 hours.

[3] = biological target: CFTR (Homo sapiens, UniProt P13569); experiment: standard Ussing Chamber Assay for CFTR potentiator activity; format: cell-based
Chain of CFTR (P13569 whole entry): as the sequence (P13569 whole entry) above

Row | Compound | Ent. Max Activity (%) [1] | EC50 [2] [µM] | CFTR modulating activity (CFTR potentiator activity) [3] | EC50 ([1]; enteroid cells, 18-24 hours incubation, acute 10 μM forskolin and 300 nM ivacaftor, read-out: Ent. EC50) [µM]
1 | Cc1cc(C)c(-n2nc(NS(=O)(=O)c3ccccc3)c3ccc(C(C)(C)C)nc32)c(C)c1 [Compound 33, N-[6-tert-butyl-1-(2,4,6-trimethylphenyl)pyrazolo[3,4-b]pyridin-3-yl]benzenesulfonamide] | + (+ is <300%) | < 1 |  | 
2 | Cc1ccccc1-c1cc2oc3ccccc3c2c(NS(=O)(=O)c2cnn(C)c2)n1 [Compound 80] | + (+ is <300%) |  |  | 
3 | C[C@@H]1CCCCC[C@](O)(C(F)(F)F)C2=NN=C(O2)c2nc(c(C(F)(F)F)cc2N)O1 [(6R,12R)-17-Amino-12-methyl-6,15-bis(trifluoromethyl)-13,19-dioxa-3,4,18-triazatricyclo[12.3.1.12,5]nonadeca-1(18),2,4,14,16-pentaen-6-ol] |  |  | confirmed | 
4 | Cc1ccccc1-c1nc(NS(=O)(=O)c2cnn(C)c2)cc2oc3ccccc3c12 [Compound 79, 1-Methyl-N-[1-(o-tolyl)benzofuro[3,2-c]pyridin-3-yl]pyrazole-4-sulfonamide] | ++ (++ is 30-60%) |  |  | 3 to 30
